The source of these data is patent US20250145585A1, “HETEROCYCLIC INHIBITORS OF IGF-1R FOR TREATMENT OF DISEASE” (HORIZON THERAPEUTICS IRELAND DAC, priority 2023, published 2025).

A value given as a limit tells only on which side of the number the result lay.

The target in the assay is T1, IGF-1R (Homo sapiens, UniProt P08069).
T1 construct: expressed in transfected cells
Nature of the assay: Example B-2: IGF-1R Assay (PathHunter cell lines, EC80 agonist challenge, chemiluminescent detection). The settings on record: PathHunter cells, compound 60 minutes at 37° C., EC80 agonist 3 hours; read-out: IC50, Biological Activity against IGF-1R (Table B2). The assay is classed as cell-based. An outline of the steps: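 Read-out is PathHunter chemiluminescence, developed for 1 h at room temperature after a 3 h room-temperature EC80 agonist challenge that followed 60 min compound pre-treatment at 37° C (1% vehicle). IC50 comes from % inhibition normalized to EC80 and vehicle controls.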

T1 sequence (P08069 31-1367): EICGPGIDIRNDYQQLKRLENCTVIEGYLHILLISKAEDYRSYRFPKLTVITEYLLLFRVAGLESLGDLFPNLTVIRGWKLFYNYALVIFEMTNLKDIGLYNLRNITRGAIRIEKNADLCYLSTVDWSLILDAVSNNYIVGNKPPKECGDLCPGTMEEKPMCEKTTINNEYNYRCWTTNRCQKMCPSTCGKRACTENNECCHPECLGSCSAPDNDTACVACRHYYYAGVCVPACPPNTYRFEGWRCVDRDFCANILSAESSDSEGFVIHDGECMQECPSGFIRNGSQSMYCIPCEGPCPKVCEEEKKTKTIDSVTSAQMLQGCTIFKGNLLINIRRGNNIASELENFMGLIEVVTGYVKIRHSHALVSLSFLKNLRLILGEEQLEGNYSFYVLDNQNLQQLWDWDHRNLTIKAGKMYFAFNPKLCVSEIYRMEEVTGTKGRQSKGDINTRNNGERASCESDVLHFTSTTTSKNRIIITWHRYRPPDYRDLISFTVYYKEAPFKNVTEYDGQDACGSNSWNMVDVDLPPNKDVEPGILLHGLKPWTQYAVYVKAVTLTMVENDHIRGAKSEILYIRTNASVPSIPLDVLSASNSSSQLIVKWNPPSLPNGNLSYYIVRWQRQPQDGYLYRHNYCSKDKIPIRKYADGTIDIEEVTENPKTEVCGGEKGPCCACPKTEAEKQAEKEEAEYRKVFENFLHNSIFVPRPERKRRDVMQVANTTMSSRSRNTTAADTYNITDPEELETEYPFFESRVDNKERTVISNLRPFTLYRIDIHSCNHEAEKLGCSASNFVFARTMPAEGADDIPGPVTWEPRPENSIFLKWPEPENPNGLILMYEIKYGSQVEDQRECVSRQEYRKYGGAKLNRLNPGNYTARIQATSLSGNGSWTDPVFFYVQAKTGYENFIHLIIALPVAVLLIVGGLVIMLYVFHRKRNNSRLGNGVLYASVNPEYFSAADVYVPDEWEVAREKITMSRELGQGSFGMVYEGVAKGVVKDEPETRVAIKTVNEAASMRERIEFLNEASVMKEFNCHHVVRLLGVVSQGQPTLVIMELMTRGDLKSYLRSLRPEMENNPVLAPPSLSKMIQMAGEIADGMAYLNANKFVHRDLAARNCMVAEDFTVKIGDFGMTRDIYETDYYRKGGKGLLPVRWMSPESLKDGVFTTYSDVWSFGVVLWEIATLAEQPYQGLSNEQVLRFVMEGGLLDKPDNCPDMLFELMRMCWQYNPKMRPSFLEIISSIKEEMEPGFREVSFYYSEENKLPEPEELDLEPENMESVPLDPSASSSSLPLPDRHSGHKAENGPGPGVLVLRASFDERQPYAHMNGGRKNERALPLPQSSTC

What is called IC50 is the concentration that gives 50% inhibition. For `CC1(C)C(=O)N(c2ccc(C3(C(F)(F)F)CC3)cc2)C(=O)N1Cc1ccnc(NCc2ncccn2)c1` [Compound 177, 5,5-dimethyl-1-((2-((pyrimidin-2-ylmethyl)amino)pyridin-4-yl)methyl)-3-(4-(1-(trifluoromethyl)cyclopropyl)phenyl) imidazolidine-2,4-dione], the IC50 was at most 500 nM. The figure for `CC1(C)C(=O)N(c2ccc(C(F)(F)F)c(C#N)c2)C(=O)N1Cc1ccnc(N[C@H]2[C@@H]3COC[C@@H]32)c1` [Compound 180, 5-(3-((2-(((1R,5S,6r)-3-oxabicyclo[3.1.0]hexan-6-yl)amino)pyridin-4-yl)methyl)-4,4-dimethyl-2,5-dioxoimidazolidin-1-yl)-2-(trifluoromethyl)benzonitrile] is above 10000 nM; for `CC1(C)C(=O)N(c2ccc(C3(C(F)(F)F)CC3)cc2)C(=O)N1Cc1ccnc(NCc2ccncn2)c1` [Compound 181, 5,5-dimethyl-1-((2-((pyrimidin-4-ylmethyl)amino)pyridin-4-yl)methyl)-3-(4-(1-(trifluoromethyl)cyclopropyl)phenyl) imidazolidine-2,4-dione] it is at most 500 nM.

Take `CC1(C)C(=O)N(c2ccc(C3(C(F)(F)F)CC3)cc2)C(=O)N1Cc1ccnc(NCc2cnccn2)c1` [Compound 182, 5,5-dimethyl-1-((2-((pyrazin-2-ylmethyl)amino)pyridin-4-yl)methyl)-3-(4-(1-(trifluoromethyl)cyclopropyl)phenyl) imidazolidine-2,4-dione]: the IC50 was at most 500 nM. As for `Cn1ccnc1CNc1cc(CN2C(=O)N(c3ccc(C4(C(F)(F)F)CC4)cc3)C(=O)C2(C)C)ccn1` [Compound 183, 5,5-dimethyl-1-((2-(((1-methyl-1H-imidazol-2-yl)methyl)amino)pyridin-4-yl)methyl)-3-(4-(1-(trifluoromethyl)cyclopropyl)phenyl) imidazolidine-2,4-dione], the IC50 was at most 500 nM.

Consider `CC1(C)C(=O)N(c2ccc(C3(C(F)(F)F)CC3)cc2)C(=O)N1Cc1ccnc(NCc2cc[nH]n2)c1` [Compound 184, 1-((2-(((1H-pyrazol-3-yl)methyl)amino)pyridin-4-yl)methyl)-5,5-dimethyl-3-(4-(1-(trifluoromethyl)cyclopropyl)phenyl) imidazolidine-2,4-dione], for which the IC50 is at most 500 nM. Consider `CC(C)Nc1cc(CN2C(=O)N(c3ccc4c(c3)C(O)(O)C(F)(F)S4(=O)=O)C(=O)C2(C)C)ccn1` [Compound 192, 3-(2,2-difluoro-3,3-dihydroxy-1,1-dioxido-2,3-dihydrobenzo[b]thiophen-5-yl)-1-((2-(isopropylamino)pyridin-4-yl)methyl)-5,5-dimethylimidazolidine-2,4-dione], for which the concentration for half-maximal inhibition (IC50) is above 10000 nM. For `CC(C)Nc1cc(CN2C(=O)N(c3cnc4c(c3)OCC4(C)C)C(=O)C2(C)C)ccn1` [Compound 193, 3-(3,3-dimethyl-2,3-dihydrofuro[3,2-b]pyridin-6-yl)-1-((2-(isopropylamino)pyridin-4-yl)methyl)-5,5-dimethylimidazolidine-2,4-dione] the value was 2000 to 10000 nM. Take `CC(C)Nc1cc(CN2C(=O)N(c3ccc4c(c3)N(S(C)(=O)=O)CC4(C)C)C(=O)C2(C)C)ccn1` [Compound 194, 3-(3,3-dimethyl-1-(methylsulfonyl)indolin-6-yl)-1-((2-(isopropylamino)pyridin-4-yl)methyl)-5,5-dimethylimidazolidine-2,4-dione]: the IC50 was at most 500 nM. For `CC(C)Nc1cc(CN2C(=O)N(c3ccc4c(c3)N(S(C)(=O)=O)CC43CCC3)C(=O)C2(C)C)ccn1` [Compound 195, 1-((2-(isopropylamino)pyridin-4-yl)methyl)-5,5-dimethyl-3-(1′-(methylsulfonyl)spiro[cyclobutane-1,3′-indolin]-6′-yl)imidazolidine-2,4-dione] the value was at most 500 nM. In the case of `CC1(C)CN(C(=O)C2CC2)c2cc(N3C(=O)N(Cc4ccnc(N[C@H]5CCOC5)c4)C(C)(C)C3=O)ccc21` [Compound 196, (S)-3-(1-(cyclopropanecarbonyl)-3,3-dimethylindolin-6-yl)-5,5-dimethyl-1-((2-((tetrahydrofuran-3-yl)amino)pyridin-4-yl)methyl)imidazolidine-2,4-dione], the IC50 is at most 500 nM. On to `CC(C)Nc1cc(CN2C(=O)N(c3cnc4c(c3)N(C)CC4(C)C)C(=O)C2(C)C)ccn1` [Compound 197, 1-((2-(isopropylamino)pyridin-4-yl)methyl)-5,5-dimethyl-3-(1,3,3-trimethyl-2,3-dihydro-1H-pyrrolo[3,2-b]pyridin-6-yl)imidazolidine-2,4-dione], for which the IC50 lay within 2000 to 10000 nM. For `COC[C@@H](C)Nc1cc(CN2C(=O)N(c3ccc4c(c3)OCC4(C)C)C(=O)C2(C)C)ccn1` [Compound 198, (R)-3-(3,3-dimethyl-2,3-dihydrobenzofuran-6-yl)-1-((2-((1-methoxypropan-2-yl)amino)pyridin-4-yl)methyl)-5,5-dimethylimidazolidine-2,4-dione] the value was at most 500 nM. Take `CC1(C)COc2cc(N3C(=O)N(Cc4ccnc(NC5CCOCC5)c4)C(C)(C)C3=O)ccc21` [Compound 199, 3-(3,3-dimethyl-2,3-dihydrobenzofuran-6-yl)-5,5-dimethyl-1-((2-((tetrahydro-2H-pyran-4-yl)amino)pyridin-4-yl)methyl)imidazolidine-2,4-dione]: the IC50 is at most 500 nM. For `CC(C)Nc1cc(CN2C(=O)N(c3ccc4c(c3)N(S(C)(=O)=O)CC43CC3)C(=O)C2(C)C)ccn1` [Compound 200, 1-((2-(isopropylamino)pyridin-4-yl)methyl)-5,5-dimethyl-3-(1′-(methylsulfonyl)spiro[cyclopropane-1,3′-indolin]-6′-yl)imidazolidine-2,4-dione] the value was at most 500 nM; for `CC1(C)CN(S(C)(=O)=O)c2cc(N3C(=O)N(Cc4ccnc(N[C@H]5CCOC5)c4)C(C)(C)C3=O)ccc21` [Compound 201, (S)-3-(3,3-dimethyl-1-(methylsulfonyl)indolin-6-yl)-5,5-dimethyl-1-((2-((tetrahydrofuran-3-yl)amino)pyridin-4-yl)methyl)imidazolidine-2,4-dione], at most 500 nM. For `COC[C@@H](C)Nc1cc(CN2C(=O)N(c3ccc4c(c3)N(C)CC4(C)C)C(=O)C2(C)C)ccn1` [Compound 202, (R)-1-((2-((1-methoxypropan-2-yl)amino)pyridin-4-yl)methyl)-5,5-dimethyl-3-(1,3,3-trimethylindolin-6-yl)imidazolidine-2,4-dione] the value was at most 500 nM; for `COC[C@@H](C)Nc1cc(CN2C(=O)N(c3ccc4c(c3)N(S(C)(=O)=O)CC4(C)C)C(=O)C2(C)C)ccn1` [Compound 203, (R)-3-(3,3-dimethyl-1-(methylsulfonyl)indolin-6-yl)-1-((2-((1-methoxypropan-2-yl)amino)pyridin-4-yl)methyl)-5,5-dimethylimidazolidine-2,4-dione], at most 500 nM; for `CC1(C)C(=O)N(c2ccc3c(c2)N(S(C)(=O)=O)CC32CCC2)C(=O)N1Cc1ccnc(N[C@H]2CCOC2)c1` [Compound 204, (S)-5,5-dimethyl-3-(1′-(methylsulfonyl)spiro[cyclobutane-1,3′-indolin]-6′-yl)-1-((2-((tetrahydrofuran-3-yl)amino)pyridin-4-yl)methyl)imidazolidine-2,4-dione], at most 500 nM.

In the case of `COC[C@@H](C)Nc1cc(CN2C(=O)N(c3ccc4c(c3)N(S(C)(=O)=O)CC43CCC3)C(=O)C2(C)C)ccn1` [Compound 205, (R)-1-((2-((1-methoxypropan-2-yl)amino)pyridin-4-yl)methyl)-5,5-dimethyl-3-(1′-(methylsulfonyl)spiro[cyclobutane-1,3′-indolin]-6′-yl)imidazolidine-2,4-dione], the half-inhibitory concentration (IC50) is at most 500 nM. For `CN1CC(C)(C)c2ccc(N3C(=O)N(Cc4ccnc(N[C@H]5CCOC5)c4)C(C)(C)C3=O)cc21` [Compound 206, (S)-5,5-dimethyl-1-((2-((tetrahydrofuran-3-yl)amino)pyridin-4-yl)methyl)-3-(1,3,3-trimethylindolin-6-yl)imidazolidine-2,4-dione] the value was 500 to 2000 nM; for `CC1(C)CN(S(C)(=O)=O)c2cc(N3C(=O)N(Cc4ccnc(N[C@H]5[C@@H]6COC[C@@H]65)c4)C(C)(C)C3=O)ccc21` [Compound 207, 1-((2-(((1R,5S,6r)-3-oxabicyclo[3.1.0]hexan-6-yl)amino)pyridin-4-yl)methyl)-3-(3,3-dimethyl-1-(methylsulfonyl)indolin-6-yl)-5,5-dimethylimidazolidine-2,4-dione], at most 500 nM.

For the compound `CC1(C)CN(S(C)(=O)=O)c2cc(N3C(=O)N(Cc4ccnc(N[C@@H]5C[C@@H]5F)c4)C(C)(C)C3=O)ccc21` [Compound 208, 3-(3,3-dimethyl-1-(methylsulfonyl)indolin-6-yl)-1-((2-(((1R,2S)-2-fluorocyclopropyl)amino)pyridin-4-yl)methyl)-5,5-dimethylimidazolidine-2,4-dione], the IC50 was at most 500 nM. The figure for `CC1(C)CN(S(C)(=O)=O)c2cc(N3C(=O)N(Cc4ccnc(NC5CCOCC5)c4)C(C)(C)C3=O)ccc21` [Compound 209, 3-(3,3-dimethyl-1-(methylsulfonyl)indolin-6-yl)-5,5-dimethyl-1-((2-((tetrahydro-2H-pyran-4-yl)amino)pyridin-4-yl)methyl)imidazolidine-2,4-dione] is at most 500 nM; for `CN1CC(C)(C)c2ccc(N3C(=O)N(Cc4ccnc(NC5CCOCC5)c4)C(C)(C)C3=O)cc21` [Compound 210, 5,5-dimethyl-1-((2-((tetrahydro-2H-pyran-4-yl)amino)pyridin-4-yl)methyl)-3-(1,3,3-trimethylindolin-6-yl)imidazolidine-2,4-dione] it is at most 500 nM. For `CC1(C)C(=O)N(c2ccc3c(c2)N(S(C)(=O)=O)CC32CCC2)C(=O)N1Cc1ccnc(NC2CCOCC2)c1` [Compound 211, 5,5-dimethyl-3-(1′-(methylsulfonyl)spiro[cyclobutane-1,3′-indolin]-6′-yl)-1-((2-((tetrahydro-2H-pyran-4-yl)amino)pyridin-4-yl)methyl)imidazolidine-2,4-dione] the value was at most 500 nM.
